Laboratory results as given in paper PMC4626104, “Inhibition on Proteasome β1 Subunit Might Contribute to the Anti-Cancer Effects of Fangchinoline in Human Prostate Cancer Cells” (PLoS ONE, 2015).

What was measured:
[1] = test system: PC-3 cells with over-expression of proteasome β1 subunit; experiment: MTT assay in PC-3 cells over-expressing proteasome β1 subunit (PSMB6 plasmid); assay type: cell-based, human; conditions: 24 h, 48 h or 72 h treatment
Description: (§1) The inhibitive effects of fangchinoline on proliferation of PC-3 cells or LnCap cells was observed by checking cell viability of cells using MTT assay as described before. Briefly, cells were seeded in 96-well plates at a density of 5×10^4 cells/mL for PC-3 cell and 4×10^4 cells/mL for LnCap cells. After overnight culture, the media were changed into fresh media containing various concentrations of fangchinoline or 0.1% DMSO (solvent control) for 24, 48 h or 72 h. Cell viability was evaluated by measuring the mitochondrial-dependent conversion of the yellow tetrazolium salt MTT to purple formazan crystals by metabolic active cells. The optical density (proportional to the number of live cells) was assessed with a Microplate Reader Bio-Rad 550 at 570 nm. IC50 value (half-maximal inhibitory concentration) was calculated by the Logit method.
Cells with over-expression of proteasome β1 subunit were obtained by transfection with pcDNA3.1 plasmid encoding full-length human PSMB6 cDNA as described before. For plasmid transfection, 5 × 10^5 cells were seeded into each well of a six-well plate until the cells reached approximately 80% confluence after cultured for 24 h. […]

[2] = target: T1, purified human erythrocyte 20S proteasome (Homo sapiens, UniProt P28072); experiment: C-L activity of purified human 20S proteasome; assay type: biochemical
T1 construct: purchased Enzo Life Sciences, Inc; host or cells: human erythrocytes
Description: The 20S proteasome assay kit was bought from Enzo Life Sciences, Inc. (Farmingdale, NY 11735, USA). The Km, Vmax values of the purified human erythrocyte 20S proteasome for fluorigenic peptide substrate Z-LLE-AMC are measured according to the instructions provided by the manufacturer. Inactivation of purified human erythrocyte 20S proteasome by fangchinoline was determined by monitoring the hydrolysis of substrate in the presence of different concentrations of fangcinoline. Assays were performed at 37°C in a reaction buffer (50 μL) containing 50 mM Tris/HCL, pH 7.5, 25 mM KCL, 10 mM NaCL, 1 mM MgCL2, 0.1 μg 20S proteasome and Z-LLE-AMC. Reactions were allowed to proceed for 120 min, and fluorescence data were collected every 1 min, and then plotted as a function of time. The apparent dissociation constant, Ki ^app, was determined by non-linear least-fit of the fractional velocity, vi/v0, as a function of [I], where vi is the steady state residual activity of the enzyme in the presence of inhibitor (I) and v0 is the initial velocity in the absence of inhibitor ( Vi/V0=1/1+[I]/Kiapp ). The dissociation constant, Ki, was calculated from the apparent dissociation constant, Ki ^app, using the following expression, where [S] is the substrate concentration and Km is the substrate binding constant ( Ki=Kiapp/1+[S]/Km ).

[3] = test system: PSMB6 knockdown PC-3 cells; experiment: MTT assay in PC-3 cells with knockdown of proteasome β1 subunit (PSMB6 siRNA); assay type: cell-based, human; conditions: 72 h treatment, vs negative control cells
Description: as §1
Validated siRNAs for PSMB6 (Sigma-Aldrich) were transfected into PC-3 cells by using Lipofectamine RNAiMAX (Invitrogen) according to the manufacturer’s protocol. Scrambled negative control siRNAs (Sigma-Aldrich) were used as negative control. Expression levels of PSMB6 (proteasome β1 subunit) in wide type cells, PSMB6 knockdown cells (cells treated with siRNAs for PSMB6), negative control cells (cells transfected with scrambled negative control siRNAs) were checked using Western blotting assay. […]

PC-3 cells = experiment: Flow cytometric analysis of cell cycle in PC-3 cells; assay type: cell-based, human; conditions: 24 h
Description: The induction of cell cycle arrest and apoptosis by fangchinoline in PC-3 cells was observed by using flow cytometric analysis as described in our previous reports. Briefly, for flow cytometry analysis of cell cycle, cells were collected after treatment, washed with PBS and then fixed with 70% ethanol at 4°C for overnight. After PBS washes, cells were re-suspended in staining buffer (10 mg/mL RNase A and […] propidium iodide in cold PBS) for 30 min in dark at room temperature and then analyzed using FACSCalibur Flow Cytometer. For flow cytometric analysis of apoptosis, Alexa Fluor 488 Annexin V & PI /Dead cell Apoptosis Kit (Invitrogen) was used. Cells were collected after treatment, washed with PBS and then resuspended in binding buffer and then incubated with Annexin V-FITC and propidium iodide for 15 min in dark at room temperature. Then, flow cytometric analysis was conducted and data analysis was performed with CellQuest software.

For `COc1ccc2cc1Oc1ccc(cc1)C[C@H]1c3cc(c(OC)cc3CCN1C)Oc1c(O)c(OC)cc3c1[C@H](C2)N(C)CC3` [fangchinoline], the “Sensitivity of cells with over-expression of proteasome β1 subunit to cytotoxicity vs wild type and negative control” value [1] was “more sensitive”, the “Hydrolysis of substrate Z-LLE-AMC by 20S proteasome” value ([2]; 500 μM fangchinoline, 75 μM Z-LLE-AMC) was “partly inhibited” and the Ki ([2]; substrate Z-LLE-AMC, 37°C) was 357 ± 30.6 µM. For the same compound, the “Effect of knockdown of proteasome β1 subunit on proliferation inhibition” value [3] was “ameliorated proliferation-inhibiting effects”, the “Percentage (%) of cells in G0/G1 phase” value (PC-3 cells; 5 μM) was 60.17±1.49% and the “Percentage (%) of cells in G2/M phase” value (PC-3 cells; 5 μM) was 11.21±2.45 %. The “Percentage (%) of cells in S phase” value (PC-3 cells; 5 μM) was 28.62±2.31%, the “Percentage (%) of cells in G0/G1 phase” value (PC-3 cells; 8 μM) was 64.25±1.57 % and the “Percentage (%) of cells in G2/M phase” value (PC-3 cells; 8 μM) was 11.99±2.23 %. For the same compound, the “Percentage (%) of cells in S phase” value (PC-3 cells; 8 μM) was 23.76±2.77%, the “Percentage (%) of cells in G0/G1 phase” value (PC-3 cells; 12 μM) was 63.03±0.73 % and the “Percentage (%) of cells in G2/M phase” value (PC-3 cells; 12 μM) was 11.59±1.99 %. For the same compound, the “Percentage (%) of cells in S phase” value (PC-3 cells; 12 μM) was 25.37±1.75 %, the “Percentage (%) of cells in G0/G1 phase” value (PC-3 cells; 18 μM) was 67.63±3.34 % and the “Percentage (%) of cells in G2/M phase” value (PC-3 cells; 18 μM) was 8.88±2.91%. For the same compound, the “Percentage (%) of cells in S phase” value (PC-3 cells; 18 μM) was 23.48±2.14 %, the “Percentage (%) of cells in G0/G1 phase” value (PC-3 cells; 27 μM) was 75.16±1.95 % and the “Percentage (%) of cells in G2/M phase” value (PC-3 cells; 27 μM) was 8.65±1.81%. For the same compound, the “Percentage (%) of cells in S phase” value (PC-3 cells; 27 μM) was 16.19±0.63 %, the “Percentage (%) of cells in G0/G1 phase” value (PC-3 cells; 40 μM) was 80.14±1.55 % and the “Percentage (%) of cells in G2/M phase” value (PC-3 cells; 40 μM) was 7.99±1.43%. The “Percentage (%) of cells in S phase” value (PC-3 cells; 40 μM) was 11.88±0.56 %.
